Test results taken from BindingDB's records for doi:10.1016/s0960-894x(02)00302-5 (Wyeth Research, 2002).

Target: Proto-oncogene tyrosine-protein kinase Src (Homo sapiens, UniProt P12931)
Experiment: Kinase inhibition Assay
Settings: pH 7.5; 30 °C
Experimental: Src kinase activity was measured in an ELISA format. IC50 is the inhibitor concentration which inhibits 50% of kinase activity that catalyzes the transfer of the terminal phosphate from ATP to the substrate.

Proto-oncogene tyrosine-protein kinase Src, sequence (P12931 2-536 limits assumed): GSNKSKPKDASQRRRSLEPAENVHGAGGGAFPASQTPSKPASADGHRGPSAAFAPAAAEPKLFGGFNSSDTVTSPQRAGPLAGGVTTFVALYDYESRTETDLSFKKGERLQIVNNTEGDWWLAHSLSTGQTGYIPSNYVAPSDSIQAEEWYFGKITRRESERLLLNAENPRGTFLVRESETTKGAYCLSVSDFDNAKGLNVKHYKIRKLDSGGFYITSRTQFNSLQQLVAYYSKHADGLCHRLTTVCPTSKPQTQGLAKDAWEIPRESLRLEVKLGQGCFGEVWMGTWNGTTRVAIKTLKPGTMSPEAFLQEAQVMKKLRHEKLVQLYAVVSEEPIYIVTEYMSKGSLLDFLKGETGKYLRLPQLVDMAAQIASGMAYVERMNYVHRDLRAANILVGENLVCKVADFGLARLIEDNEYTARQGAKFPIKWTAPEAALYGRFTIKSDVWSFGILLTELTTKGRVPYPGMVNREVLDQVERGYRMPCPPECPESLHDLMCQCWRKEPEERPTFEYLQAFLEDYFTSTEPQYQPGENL

SMILES	IC50
COc1cc(Nc2c(C#N)cnc3cc(-c4ccc(CN5CCCCC5)s4)ccc23)c(Cl)cc1Cl [4-[(2,4-dichloro-5-methoxyphenyl)amino]-7-[5-(piperidin-1-ylmethyl)thiophen-2-yl]quinoline-3-carbonitrile]	4.2 nM
COc1cc(Nc2c(C#N)cnc3cc(-c4ccc(CN5CCSCC5)s4)ccc23)c(Cl)cc1Cl [4-[(2,4-dichloro-5-methoxyphenyl)amino]-7-[5-(thiomorpholin-4-ylmethyl)thiophen-2-yl]quinoline-3-carbonitrile]	4.4 nM
COc1cc(Nc2c(C#N)cnc3cc(-c4ccc(CN5CCC(O)CC5)s4)ccc23)c(Cl)cc1Cl [4-[(2,4-dichloro-5-methoxyphenyl)amino]-7-{5-[(4-hydroxypiperidin-1-yl)methyl]thiophen-2-yl}quinoline-3-carbonitrile]	2 nM
